Reference: PMC6024778 (Viruses, 2018)
Where a name gives a salt, the structure may show the parent alone. Read-outs that look alike come from different tables or passages of the source.

Tests used:
MERS-CoV [1] = assay: microbe, parasite or virus in culture; assay type: cell-based
in vitro [2] = conditions: human
MERS-CoV [3] = assay type: cell-based
[4] = tested on: MERS-CoV nucleocapsid (N) protein; assay type: cell-based
rMERS-CoV = assay: microbe, parasite or virus in culture; assay type: cell-based, MERS-CoV; conditions: Middle East respiratory syndrome-related coronavirus, Huh-7, 72 h
HCoV-229E = assay: microbe, parasite or virus in culture; assay type: cell-based; conditions: Human coronavirus 229E
HCoV-OC43 = assay: microbe, parasite or virus in culture; assay type: cell-based, betacoronavirus OC43 strain; conditions: Betacoronavirus 1, OC43
[5] = tested on: Feline infectious peritonitis virus (FIPV); assay: microbe, parasite or virus in culture; assay type: cell-based; conditions: Alphacoronavirus 1
MERS-CoV [6] = assay type: cell-based; remark: listed apart in the source
MERS-CoV [7] = assay type: cell-based; remark: listed apart in the source
MERS-CoV [8] = assay type: cell-based; remark: listed apart in the source
MERS-CoV [9] = assay type: cell-based; remark: listed apart in the source
in vitro [10] = conditions: cat
[11] = Middle East respiratory syndrome-related coronavirus, Huh-7, 72 h

Structure (SMILES)	EC50 (MERS-CoV [1]; [11])	CC50 (in vitro [2])	EC50 (MERS-CoV [1]; read-out: EC50)	further results
CN(C)CC/C=C1\c2ccccc2CSc2ccccc21 [Dosulepin hydrochloride]	3.4 µM	28.9 µM		
Nc1ccn([C@@H]2O[C@H](CO)[C@@H](O)C2(F)F)c(=O)n1 [Gemcitabine, gemcitabine hydrochloride]	1.2 µM			production of infectious MERS-CoV particles (MERS-CoV [3]): completely abolished; viral N protein expression [4]: completely abolished
CCN(CC)Cc1cc(Nc2ccnc3cc(Cl)ccc23)ccc1O [Amodiaquine dihydrochloride]			2.1 ± 0.7 µM	
CN1CCN(c2nc(C3=C(c4c[nH]c5ccccc45)C(=O)NC3=O)c3ccccc3n2)CC1 [Sotrastaurin]	~9.7 µM	> 50 µM		
CCN(CCO)CCCC(C)Nc1ccnc2cc(Cl)ccc12 (stereo not shown) [Hydroxychloroquine sulfate]	13.3 ± 2.1 µM	> 50 µM		
O=C(Nc1ccncc1)c1cc([N+](=O)[O-])ccc1Cl [N1-(4-pyridyl)-2-chloro-5-nitrobenzamide]	10.5 ± 0.3 µM	> 50 µM		
CN1CCN(CCOc2cc(OC3CCOCC3)c3c(Nc4c(Cl)ccc5c4OCO5)ncnc3c2)CC1 [Saracatinib]	2.9 ± 0.6 µM			selectivity index (SI) (MERS-CoV [1]): > 17; EC50 (rMERS-CoV): 9.3 µM; EC50 (HCoV-229E): 2.4 µM; EC50 (HCoV-OC43): 5.1 µM; EC50 [5]: 7 µM; reduction of viral titer (MERS-CoV [3]): marginal reduction; intracellular viral genomic (ORF1a) and mRNA (upE) syntheses (MERS-CoV [6]): near complete inhibition; antiviral activity (viral titer) (MERS-CoV [7]): less effective; reduction of MERS-CoV titer (MERS-CoV [7]): more pronounced; viral titer (MERS-CoV [7]): marked reduction; reduction in infectious virus titers (MERS-CoV [8]): ~ 80%; intracellular viral genomic RNA and mRNA expressions (MERS-CoV [9]): significant decrease; syntheses of intracellular viral genomic RNA and mRNAs (MERS-CoV [9]): severely affected; viral genomic RNA and mRNA syntheses (MERS-CoV [9]): near complete inhibition; CC50 (Huh-7 cells; human): 57 ± 5.5 µM; CC50 (in vitro [10]): > 50 µM
CCN(CC)CCCC(C)Nc1ccnc2cc(Cl)ccc12 (stereo not shown) [Chloroquine diphosphate]	12 ± 3 µM	> 50 µM		
CCN(CC)Cc1cc(Nc2ccnc3cc(Cl)ccc23)ccc1O [Amodiaquine dihydrochloride dehydrate]			2.4 ± 0.7 µM	
COc1ccc(C2=N[C@@H](c3ccc(Cl)cc3)[C@@H](c3ccc(Cl)cc3)N2C(=O)N2CCNC(=O)C2)c(OC(C)C)c1 [Nutlin-3]	6.9 ± 1.4 µM	26.8 ± 1.6 µM		
COc1ccc2c(c1)N(C[C@H](C)CN(C)C)c1ccccc1S2 [Methotrimeprazine maleate salt]			2.5 µM	CC50 (Huh-7 cells): 24.5 µM
OCCOCCN1CCN(C(c2ccccc2)c2ccc(Cl)cc2)CC1 (stereo not shown) [Hydroxyzine pamoate]	14.4 ± 3.4 µM	> 50 µM		
CC(=O)c1ccc2c(c1)N(CCCN1CCN(CCO)CC1)c1ccccc1S2 [Acetophenazine maleate]			11.2 ± 5 µM	CC50 (Huh-7 cells): 23.6 ± 3.8 µM
